The term pIC50 denotes −log10 of the IC50, conventionally taken in molar units. As a reminder, the viability, T/C is the result in the treated group divided by that in the control group, in per cent.

Our source for the IC50 and viability, T/C values is PubChem BioAssay AID1963868 (Molecular Pharmacology Branch, DTP, NCI, 2024).

pIC50: −log10 of the molar value.

The test system of this test is KRAS PDC tumor spheroids (HUVEC+MSC), viability. As to the kind of experiment: Anticancer human tumor 254851-301-R-J1-PDC patient-derived colon carcinoma cell line growth inhibition [KRAS2]. Particulars: for viability, T/C: stronger effect = lower value. In short, it runs like this: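 KRAS-mutant tumor cells were grown as spheroids with HUVEC endothelial cells and human MSCs as stroma. Targeted agents were tested alone and with KRAS pathway inhibitors. Doses started at or near clinical Cmax, or 10 microM, descending half-log.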

Setting [1] is: curve of first compound, second compound 0.1 µM.
[2] abbreviates: curve of first compound, second compound 0.316 µM.
[3] abbreviates: curve of first compound, second compound 1 µM.
[4] abbreviates: curve of first compound, second compound 3.16 µM.
[5] abbreviates: curve of first compound, second compound 10 µM.
The mark [6] stands for this setting: second compound 0.1 µM, first compound 0.0316 µM.
Where [7] appears, read: second compound 0.1 µM, first compound 0.1 µM.
Setting [8] is: second compound 0.1 µM, first compound 0.316 µM.
Where [9] appears, read: second compound 0.1 µM, first compound 1 µM.
Where [10] appears, read: second compound 0.316 µM, first compound 0.0316 µM.
Setting [11] is: second compound 0.316 µM, first compound 0.1 µM.
Setting [12] is: second compound 0.316 µM, first compound 0.316 µM.
Setting [13] is: second compound 0.316 µM, first compound 1 µM.
The mark [14] stands for this setting: second compound 1 µM, first compound 0.0316 µM.
Where [15] appears, read: second compound 1 µM, first compound 0.1 µM.
[16] abbreviates: second compound 1 µM, first compound 0.316 µM.
The mark [17] stands for this setting: second compound 1 µM, first compound 1 µM.
The mark [18] stands for this setting: second compound 3.16 µM, first compound 0.0316 µM.
[19] abbreviates: second compound 3.16 µM, first compound 0.1 µM.
Where [20] appears, read: second compound 3.16 µM, first compound 0.316 µM.
[21] abbreviates: second compound 3.16 µM, first compound 1 µM.
Setting [22] is: second compound 10 µM, first compound 0.0316 µM.
Setting [23] is: second compound 10 µM, first compound 0.1 µM.
Setting [24] is: second compound 10 µM, first compound 0.316 µM.
[25] abbreviates: second compound 10 µM, first compound 1 µM.
Setting [26] is: second compound 0.1 µM, first compound 3.16 µM.
The mark [27] stands for this setting: second compound 0.1 µM, first compound 10 µM.
Setting [28] is: second compound 0.316 µM, first compound 3.16 µM.
[29] abbreviates: second compound 0.316 µM, first compound 10 µM.
The mark [30] stands for this setting: second compound 1 µM, first compound 3.16 µM.
The mark [31] stands for this setting: second compound 1 µM, first compound 10 µM.
Where [32] appears, read: second compound 3.16 µM, first compound 3.16 µM.
Setting [33] is: second compound 3.16 µM, first compound 10 µM.
Setting [34] is: second compound 10 µM, first compound 3.16 µM.
[35] abbreviates: second compound 10 µM, first compound 10 µM.
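Further: spheroids exposed to compounds for seven days before readout.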
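Wherever viability, T/C is given: 100% = DMSO vehicle control luminescence of the spheroids.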

As for `CCN1CCN(Cc2ccc(Nc3ncc(F)c(-c4cc(F)c5nc(C)n(C(C)C)c5c4)n3)nc2)CC1` + COc1cc2nc(C)nc(NC(C)c3cc(N)cc(C(F)(F)F)c3)c2cc1OC1CCOC1, the pIC50 is, setting by setting: under setting [1], 6.24; under setting [2], 6.24; under setting [3], 6.26; under setting [4], 6.92; under setting [5], 7.18. Further, the viability, T/C is 97.6% (second compound 0.1 µM, first compound 0.00316 µM); 98.1% (second compound 0.1 µM, first compound 0.01 µM); 96% under setting [6]; 80.6% under setting [7]; 66.2% under setting [8]; 35.7% under setting [9]. The viability, T/C runs as follows: (second compound 0.316 µM, first compound 0.00316 µM) 93.2%; (second compound 0.316 µM, first compound 0.01 µM) 92.6%; under setting [10], 92.2%; under setting [11], 72.2%; under setting [12], 67.9%; under setting [13], 36.2%. In addition, the viability, T/C runs as follows: (second compound 1 µM, first compound 0.00316 µM) 90.3%; (second compound 1 µM, first compound 0.01 µM) 88.9%; under setting [14], 86.7%; under setting [15], 76.8%; under setting [16], 63.1%; under setting [17], 36.3%. Moreover, the viability, T/C by setting is: (second compound 3.16 µM, first compound 0.00316 µM) 63.5%; (second compound 3.16 µM, first compound 0.01 µM) 70%; under setting [18], 55.3%; under setting [19], 49.9%; under setting [20], 43.3%; under setting [21], 26%. The viability, T/C (second compound 10 µM, first compound 0.00316 µM) is 83.2%; the viability, T/C (second compound 10 µM, first compound 0.01 µM) is 74.5%; the viability, T/C under setting [22] is 69.7%; the viability, T/C under setting [23] was 39.1%; the viability, T/C under setting [24] was 17.8%; the viability, T/C under setting [25] was 7.16%.

Regarding `CC1OCC2(CCN(c3cnc(Sc4ccnc(N)c4Cl)c(N)n3)CC2)C1N` (configuration not stated) + CNCc1ccccc1-c1csc(C(C)Nc2nc(C)nc3cc(OC)c(OC)cc23)c1, the pIC50 reads like this: under setting [1], less than 5.00; under setting [2], less than 5.00; under setting [3], less than 5.00; under setting [4], more than 7.50; under setting [5], more than 7.50. For the same compound, the viability, T/C reads like this: under setting [6], 103%; under setting [7], 97.3%; under setting [8], 88.2%; under setting [9], 76.4%; under setting [26], 78.1%; under setting [27], 74.6%. The viability, T/C reads like this: under setting [10], 92.2%; under setting [11], 90.9%; under setting [12], 90.5%; under setting [13], 81.1%; under setting [28], 82.6%; under setting [29], 75.3%. The viability, T/C is, setting by setting: under setting [14], 91.2%; under setting [15], 88.5%; under setting [16], 86.9%; under setting [17], 78.7%; under setting [30], 72.4%; under setting [31], 67.6%. For the same compound, the viability, T/C under setting [18] is 50.8%; the viability, T/C under setting [19] is 38.7%; the viability, T/C under setting [20] is 52.9%; the viability, T/C under setting [21] was 30.8%; the viability, T/C under setting [32] is 29.4%; the viability, T/C under setting [33] was 25.9%. Besides, the viability, T/C by setting is: under setting [22], 0.09%; under setting [23], 0.09%; under setting [24], 0.08%; under setting [25], 0.09%; under setting [34], 0.42%; under setting [35], 0.17%.

Take `O=C(c1cc(Cc2n[nH]c(=O)c3ccccc23)ccc1F)N1CCN(C(=O)C2CC2)CC1` + COc1cc2nc(C)nc(NC(C)c3cc(N)cc(C(F)(F)F)c3)c2cc1OC1CCOC1: the pIC50 by setting is: under setting [1], less than 5.00; under setting [2], less than 5.00; under setting [3], less than 5.00; under setting [4], less than 5.00; under setting [5], less than 5.00. Besides, the viability, T/C under setting [6] is 111%; the viability, T/C under setting [7] is 94.5%; the viability, T/C under setting [8] is 98.5%; the viability, T/C under setting [9] was 91.8%; the viability, T/C under setting [26] was 101%; the viability, T/C under setting [27] is 97.2%. For the same compound, the viability, T/C is 94.5% under setting [10]; 103% under setting [11]; 95.1% under setting [12]; 96.1% under setting [13]; 96.4% under setting [28]; 104% under setting [29]. The viability, T/C runs as follows: under setting [14], 101%; under setting [15], 108%; under setting [16], 101%; under setting [17], 101%; under setting [30], 98.1%; under setting [31], 98.2%. Moreover, the viability, T/C under setting [18] was 94.9%; the viability, T/C under setting [19] was 89.8%; the viability, T/C under setting [20] is 89.5%; the viability, T/C under setting [21] is 95.2%; the viability, T/C under setting [32] was 90.4%; the viability, T/C under setting [33] is 87.3%. Also, the viability, T/C by setting is: under setting [22], 94.9%; under setting [23], 90%; under setting [24], 91%; under setting [25], 82.7%; under setting [34], 76.2%; under setting [35], 78%.

Turning to `COc1cc(OC)cc(N(CCNC(C)C)c2ccc3ncc(-c4cnn(C)c4)nc3c2)c1`, the viability, T/C (compound 0.0316 µM) is 107% [middle of 5 runs]; the viability, T/C (compound 0.1 µM) was 100% [middle of 5 runs]; the viability, T/C (compound 0.316 µM) was 96.7% [middle of 5 runs].

Turning to `COc1cc2nccc(Oc3ccc(NC(=O)C4(C(=O)Nc5ccc(F)cc5)CC4)cc3)c2cc1OC`, the viability, T/C was 103% [middle of 5 runs] (compound 0.0316 µM), 107% [middle of 5 runs] (compound 0.1 µM), 105% [middle of 5 runs] (compound 0.316 µM) and 106% [middle of 5 runs] (compound 1 µM). For the same compound, under “curve of compound”, the pIC50 was less than 5.00.

In the case of `COc1cc(Nc2ncc3c(n2)-c2ccc(Cl)cc2C(c2c(F)cccc2OC)=NC3)ccc1C(=O)O` + COc1cc2nc(C)nc(NC(C)c3cc(N)cc(C(F)(F)F)c3)c2cc1OC1CCOC1, the pIC50 under setting [1] was 7.05; the pIC50 under setting [2] was 7.07; the negative-log IC50 (pIC50) under setting [3] is 7.09; the negative logarithm of the IC50 (pIC50) under setting [4] is 7.11; the negative logarithm of the IC50 (pIC50) under setting [5] was 7.32. Also, the viability, T/C is 77.7% under setting [6]; 42% under setting [7]; 31.5% under setting [8]; 25.1% under setting [9]; 14% under setting [26]; 9.19% under setting [27]. Moreover, the viability, T/C was 83.9% under setting [10]; 39.8% under setting [11]; 30.7% under setting [12]; 24.1% under setting [13]; 17% under setting [28]; 8.65% under setting [29]. The viability, T/C under setting [14] is 77.4%; the viability, T/C under setting [15] is 39.1%; the viability, T/C under setting [16] is 30.1%; the viability, T/C under setting [17] was 24.6%; the viability, T/C under setting [30] was 18.5%; the viability, T/C under setting [31] is 8.42%. The viability, T/C is 74.5% under setting [18]; 38.8% under setting [19]; 30.2% under setting [20]; 25.8% under setting [21]; 20.3% under setting [32]; 10.9% under setting [33]. Further, the viability, T/C by setting is: under setting [22], 58.6%; under setting [23], 34.1%; under setting [24], 28.9%; under setting [25], 25%; under setting [34], 22.4%; under setting [35], 16.4%.

Turning to `CC1COCCN1c1cc(-c2ccnn2C)c2ccnc(-c3ccn[nH]3)c2n1` (configuration not stated), the viability, T/C by setting is: (compound 0.01 µM) 99.3% [middle of 5 runs]; (compound 0.316 µM) 47.7% [middle of 5 runs]; (compound 1 µM) 38.6% [middle of 5 runs]; (compound 3.16 µM) 24.1% [middle of 5 runs].
